Reference: patent publication US20120115742A1, “METHODS FOR IDENTIFICATION” (Cambridge Enterprise Limited, priority 2009, published 2012)
Read-outs that look alike come from different tables or passages of the source.

Key:
sstr2 = biological target: T1, sstr2 (Homo sapiens, UniProt P30874); assay: [3H]-BN83250 equilibrium binding to THP-1 cells (Scatchard/competition); settings: THP-1 cells, 2 hours at 4° C.; read-out: affinity (Scatchard analysis)
T1 construct: with 1×10^6 THP-1 cells in Gey's Balanced Salt Solution, 10 nM [^3H]-BN83250; endogenous in cells; host or cells: THP-1 cells (intact cells, 4 °C)
Method: Methods: [^3H]-BN83250 was synthesesized from (S,E)-3-(2′,2′-dimethyldodec-4′-enoylamino)-caprolactam by catalytic hydrogenation using tritium gas over a palladium catalyst (CRB Ltd, Cleveland, UK), yielding the tritiated product at a concentration of 270 μM in ethanol with a specific activity of 220Ci/mmol. The (S,E)-3-(2′,2′-dimethyldodec-4′-enoylamino)-caprolactam was prepared as follows: (S,S)-3-amino-caprolactam hydro-pyrrolidine-5-carboxylate (10 mmol) and Na2CO3 (30 mmol) in water (30 ml) were added to a solution of 2,2-dimethyl-dodec-4-enoyl chloride (10 mmol) in dichloromethane (30 ml) at ambient temperature and the reaction was stirred for 12 hours. The organic layer was then separated and the aqueous phase was extracted with additional dichloromethane (2×25 ml). The combined organic layers were dried over Na2CO3 and reduced in vacuo. The residue was purified by silica column chromatography (1:1 EtOAc:hexanes to EtOAc) to give (S,E)-3-(2′,2′-dimethyl-dodec-4′-enoyl)amino-caprolactam as a colourless oil (2.12 g, 63%). The radiolabelled compound was stored in the dark at 4° C. until required. Prior to use the specific activity was adjusted by addition of unlabelled BN83250.
For the analysis of binding, individual reactions were set up (in triplicate for each condition), with 1×10^6 THP-1 cells in Gey's Balanced Salt Solution, 10 nM [^3H]-BN83250 (at 50 Ci/mmol) and various concentrations of (S)-3(2′2′-dimethylpropionoylamino)-tetrahydropyridin-2-one (10 pM to 10 μM). Excess (100 μM) unlabelled BN83250 was used to determine the level of non-specific binding. After 2 hours at 4° C. (conditions previously shown to achieve equilibrium binding, and which prevent uptake of the radioligand that would result in an over-estimate of binding) excess label was washed away by centrifugation (3 washes with 5 ml of Gey's Balanced Salt Solution) and the bound radioactivity was determined by scintillation counting of the solubilised cell pellet.
Hits from this assay were confirmed using conventional Scatchard analysis, exactly as described in Example 4 above.

Panc-2H4 cells = assay: Human Panc-2H4 insulin suppression assay; assay type: cell-based
Description: (§1) Two different assays for “classical” sstr2 functions were adopted: (1) cultured foetal rat pituitary cells secreted growth hormone which is inhibited by sstr2 agonists in a dose-dependent fashion and (2) selected glucose-sensitive sub-clones of the human Panc-1 cell line secrete insulin which is inhibited by sstr2 agonists in a dose-dependent fashion.
Glucose-sensitive sub-clones of the human Panc-1, a cell line derived from a pleiomorphic epithelioid carcinoma of the exocrine pancreas, were obtained essentially as described by Hamil et al. (2008) Biomed. Sci. Instrum. 44:441-6. Briefly, Panc-1 cells were subcultured in 24 well plates, and the medium was supplemented with an additional 5% glucose. […] The resulting sub-lines were then tested for glucose sensitivity by preparing wells of a 96-well plate (5×10^4 cells per well) which were then exposed to cultured medium containing a range of glucose concentrations (low glucose DMEM, DMEM, DMEM+1% glucose, DMEM+2.5% glucose and DMEM+5% glucose). After 24 hrs incubation, the conditioned medium was collected and assayed for insulin secretion by ELISA (Linco; cat# EZHI-14K) in accordance with the manufacturer's instructions. […] Further 96 well plates were prepared using Panc-2H4 (5×10^4 cells per well) in DMEM. After 24 hrs, the medium was switched to DMEM+5% glucose containing various test agents at various concentrations (triplicate wells per condition). After a further 24 hrs, the conditioned medium was harvested and the concentration of insulin was determined by ELISA as described above.
(§2) Results were reported as the mean SD, expressed as the fold change from cells in the presence of vehicle only.

[1] = system: rat peripheral blood leukocytes; assay: Rat chemokine-induced PBMC migration assay; assay type: cell-based
Method: Similarly, where human Panc-2H4 cells are used to determine the effect of agents on classical sstr2 targets, the result is compared with the effect of the same agents on chemokine-induced migration of human THP-1 cells. […] For this reason, the ratio of “classical” to “BSCI” activity in Table 3 is calculated separately for rat and human.

THP-1 cells = assay: MCP-1 induced THP-1 cell migration (Transwell/ChemoTx)
Method: Leukocyte migration was measured using the 96-well format micro Transwell® assay system from Neuroprobe (Gaithersburg, Md., USA). In principle, this assay consists of two chambers separated by a porous membrane. The chemoattractant is placed in the lower compartment and the cells are placed in the upper compartment.
First, the cell suspension to be placed in the upper compartment was prepared. The THP-1 cells were pelleted by centrifugation (770×g; 4 mins) and washed with Geys Balanced Salt Solution with 1 mg/ml BSA (GBSS+BSA). This wash was then repeated, and the cells re-pelleted before being resuspended in a small volume of GBSS+BSA for counting, for example using a standard haemocytometer.
This ensured that there were 100,000 THP-1 cells in each 25 μl of the solution to be placed in the upper chamber of the plate.
To the third pot, GBSS+BSA plus vehicle as appropriate was added so that the volumes in three pots are equal, acting as a control.
Next, the chemoattractant solution to be placed in the lower compartment was prepared. […] This solution was divided into three pots, as for the cell suspension. To one pot, the BSCI was added to the same final concentration as was added to the cell suspension, in the second pot the BSCI and the sstr2 antagonist were both added at the same concentration as previously added to the cell suspension, while to the remaining pot GBSS+BSA plus vehicle as appropriate was added so that the volumes in the three pots were equal.
Once the chemoattractant solutions for the lower wells and cell solutions for the upper chambers were prepared, the migration chamber was assembled. 29 μl of the appropriate chemoattractant solution was placed into the lower well of the chamber. Assays were performed with at least triplicate determinations of each condition. Once all the lower chambers were filled, the porous membrane was applied to the chamber in accordance with the manufacturer's instructions. Finally, 25 μl of the appropriate cell solution was applied to each upper chamber. A plastic lid was placed over the entire apparatus to prevent evaporation.
The assembled chamber was incubated at 37° C., 5% CO2, for 2 hours.
At the end of the incubation, the liquid cell suspension was gently removed from the upper chamber, 20 μl of ice-cold 20 mM EDTA in PBS was added to the upper chamber, and the apparatus was incubated at 4° C. for 15 mins. This procedure caused any cells adhering to the underside of the membrane to fall into the lower chamber.
After this incubation the filter was carefully flushed with GBSS+BSA to wash off the EDTA, and then the filter was removed.
The number of cells migrated into the lower chamber under each condition can then be determined by a number of methods, including direct counting, labelling with fluorescent or radioactive markers or through the use of a vital dye. Typically, we utilised the vital dye MTT. 3 μl of stock MTT solution were added to each well, and then the plate was incubated at 37° C. for 1-2 hours during which time dehydrogenase enzymes within the cells converted the soluble MTT to an insoluble blue formazan product that could be quantified spectrophotometrically.
In parallel, an 8-point standard curve was set up. Starting with the number of cells added to each upper chamber (100,000) and going down in 2-fold serial dilutions in GBSS+BSA, the cells were added to a plate in 25 with 3 μl of MTT stock solution added. The standard curve plate was incubated along side the migration plate. At the end of this incubation, the liquid was carefully removed from the lower chambers, taking care not to disturb the precipitated formazan product.
The MCP-1 stimulated migration was determined by subtracting the average number of cells that reached the lower compartment in wells where no MCP-1 was added from the average number of cells that reached the lower compartment where MCP-1 was present at 25 ng/ml.

fetal rat pituicytes = assay: Rat pituicyte GH suppression assay; assay type: cell-based; settings: Table 3
Description: as §1
Methods: Cultures of fetal rat pituicytes were established exactly as previously described (Murray et al. (2004) J. Clin. Endocrinol. Metab. 89:3027-32) by enzymatic dispersion. After 48 hrs in low glucose DMEM plus 10% FCS, cells in 48 well plates (5×10^4 cells per well) were washed for 4 hrs in serum-free DMEM and then incubated with test agents at various concentrations for a further 24 hrs in serum-free DMEM. At the end of this period, the conditioned medium was harvested, any cell debris removed by centrifugation and assayed for […] using a commercially available ELISA (Linco; cat# EZRMGH-45K) in accordance with the manufacturer's instructions.
as §2

T1 sequence (P30874 whole entry): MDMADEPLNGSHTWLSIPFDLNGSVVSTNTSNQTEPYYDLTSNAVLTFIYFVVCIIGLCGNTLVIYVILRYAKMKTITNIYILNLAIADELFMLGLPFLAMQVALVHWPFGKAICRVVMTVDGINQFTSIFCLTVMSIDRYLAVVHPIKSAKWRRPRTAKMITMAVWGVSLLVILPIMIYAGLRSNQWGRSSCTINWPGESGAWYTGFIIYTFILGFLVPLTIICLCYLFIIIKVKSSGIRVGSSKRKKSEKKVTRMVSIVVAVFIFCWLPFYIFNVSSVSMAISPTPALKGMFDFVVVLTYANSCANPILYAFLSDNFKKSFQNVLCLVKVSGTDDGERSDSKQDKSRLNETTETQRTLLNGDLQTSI

(S)-3-(2′,2′-dimethyldodecanoyl)amino-caprolactam [BN83250]
Kd (sstr2): ~0.08 µM
EC50 (Panc-2H4 cells; Table 3, read-out: Human Panc-2H4 insulin suppression assay ED50): 1 µM
Human Panc-2H4 insulin suppression assay Max effect (Panc-2H4 cells; Table 3, suppression compared to vehicle): 28%
Panc-2H4 insulin suppression assay Max Effect (Panc-2H4 cells; Table 5): 28%
EC50 (Panc-2H4 cells; Table 5, read-out: Panc-2H4 insulin suppression assay (“classical” target) ED50): 1 µM
inhibition of insulin secretion by Panc-2H4 (Panc-2H4 cells; highest concentrations tested): None of these agents inhibited insulin secretion
“Classical”:“BSCI” potency ratio, Rat ([1]; PBMC migration ED50 versus pituicyte GH ED50): 0.0009
Rat chemokine-induced PBMC migration assay Max effect ([1]; Table 3): 100%
“Classical”:“BSCI” potency ratio, Human (THP-1 cells; THP-1 migration ED50 versus Panc-2H4 insulin ED50): <0.00009
Human chemokine-induced THP-1 migration assay Max effect (THP-1 cells; Table 3): 100%
Chemokine-induced THP-1 cell migration assay Max Effect (THP-1 cells; Table 5): 100%
RATIO (THP-1 cells; Table 5, migration ED50 versus insulin ED50): <0.00009
EC50 (fetal rat pituicytes; read-out: Rat pituicyte GH suppression assay ED50): 0.32 µM
Rat pituicyte GH suppression assay Max effect (fetal rat pituicytes; suppression compared to vehicle): 63%
